{"source": "ChEMBL document CHEMBL1138595", "about": "“(+/-)-Nantenine analogs as antagonists at human 5-HT(2A) receptors: C1 and flexible congeners” (Bioorg Med Chem Lett, 2009)", "molecular_target": "5-hydroxytryptamine receptor 2A (Homo sapiens, UniProt P28223)", "sequence (P28223 whole entry)": "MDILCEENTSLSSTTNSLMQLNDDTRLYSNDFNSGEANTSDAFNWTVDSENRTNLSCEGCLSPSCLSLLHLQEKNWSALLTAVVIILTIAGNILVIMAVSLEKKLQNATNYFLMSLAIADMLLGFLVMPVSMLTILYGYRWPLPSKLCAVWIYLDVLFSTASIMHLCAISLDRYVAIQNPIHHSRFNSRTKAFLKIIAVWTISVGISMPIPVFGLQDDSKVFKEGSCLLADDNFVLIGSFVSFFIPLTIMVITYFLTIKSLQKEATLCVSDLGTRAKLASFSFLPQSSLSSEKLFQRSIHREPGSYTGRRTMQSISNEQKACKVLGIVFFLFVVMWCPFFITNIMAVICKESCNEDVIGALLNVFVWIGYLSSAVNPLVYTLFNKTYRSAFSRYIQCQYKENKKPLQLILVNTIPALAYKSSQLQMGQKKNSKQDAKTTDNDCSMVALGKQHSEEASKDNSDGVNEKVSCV", "test": "Antagonist activity at human 5HT2A receptor expressed in EC80 serotonin-stimulated CHOK1 cells by calcium mobilization assay", "format": "functional, cell-based, CHO-K1"}
{"smiles": "COc1cc2c3c(c1OCc1ccccc1)-c1cc4c(cc1CC3N(C)CC2)OCO4", "note": "(stereo unspecified)", "values": [{"measurement": "IC50", "result": 4.6, "unit": "µM"}]}
